Experimental findings from paper PMC5218480 (PLoS ONE, 2017) are described below.

The assay relates to MV-4-11 cells. Put plainly: Gene expression microarray analysis (Affymetrix PrimeView) and GSEA. In kind it is cell-based, human. Also noted: RFU PODN (11730768_x_at) / Fold change /veh PODN (11730768_x_at) / RFU LINC00158 (11744669_a_at) / Fold change /veh LINC00158 (11744669_a_at) / RFU DUSP10 (11751237_a_at) / Fold change /veh DUSP10 (11751237_a_at) / RFU ID3 (11757404_x_at) / Fold change /veh ID3 (11757404_x_at) / RFU PLEKHG5 (11737974_s_at) / Fold change /veh PLEKHG5 (11737974_s_at) / RFU LRRC4B (11730491_at) / Fold change /veh LRRC4B (11730491_at) / RFU GIMAP4 (11747438_a_at) / Fold change /veh GIMAP4 (11747438_a_at) / RFU KRT8 (11758183_x_at) / Fold change /veh KRT8 (11758183_x_at) / RFU CNN1 (11734310_a_at) / Fold change /veh CNN1 (11734310_a_at) / RFU VPS37D (11726825_at) / Fold change /veh VPS37D (11726825_at) / RFU C10orf10 (11716522_x_at) / Fold change /veh C10orf10 (11716522_x_at) / RFU KIR2DL2 /// KIR2DL4 /// KIR2DL5A /// KIR2DL5B /// KIR2DS1 /// KIR2DS2 /// KIR2DS3 /// KIR2DS4 /// KIR3DL3 /// KIR3DL3 /// KIR3DS1 (11738374_at) / Fold change /veh KIR2DL2 /// KIR2DL4 /// KIR2DL5A /// KIR2DL5B /// KIR2DS1 /// KIR2DS2 /// KIR2DS3 /// KIR2DS4 /// KIR3DL3 /// KIR3DL3 /// KIR3DS1 (11738374_at) / RFU C1QL1 (11718748_at) / Fold change /veh C1QL1 (11718748_at) / RFU TMPRSS4 (11747572_a_at) / Fold change /veh TMPRSS4 (11747572_a_at) / RFU HAMP (11756126_x_at) / Fold change /veh HAMP (11756126_x_at) / RFU RNFT2 (11725882_a_at) / Fold change /veh RNFT2 (11725882_a_at) / RFU NR4A2 (11747474_a_at) / Fold change /veh NR4A2 (11747474_a_at) / RFU ABCC12 (11746883_a_at) / Fold change /veh ABCC12 (11746883_a_at) / RFU TMEM136 (11760407_x_at) / Fold change /veh TMEM136 (11760407_x_at) / RFU CLDN22 /// WWC2 (11732394_at) / Fold change /veh CLDN22 /// WWC2 (11732394_at) / RFU HLA-DPB1 (11760878_x_at) / Fold change /veh HLA-DPB1 (11760878_x_at) / RFU SPINT1 (11716480_a_at) / Fold change /veh SPINT1 (11716480_a_at) / RFU GAP43 (11754022_s_at) / Fold change /veh GAP43 (11754022_s_at) / RFU A4GNT (11735810_at) / Fold change /veh A4GNT (11735810_at) / RFU PRB3 (11715151_x_at) / Fold change /veh PRB3 (11715151_x_at) / RFU TUBB4B (11761932_at) / Fold change /veh TUBB4B (11761932_at) / RFU CAPN14 (11732068_a_at) / Fold change /veh CAPN14 (11732068_a_at) / RFU TMCC2 (11721928_a_at) / Fold change /veh TMCC2 (11721928_a_at) / RFU IRGQ (11745062_a_at) / Fold change /veh IRGQ (11745062_a_at) / RFU FAM174B (11720279_a_at) / Fold change /veh FAM174B (11720279_a_at) / RFU TMPRSS4 (11748680_a_at) / Fold change /veh TMPRSS4 (11748680_a_at) / RFU FAM212B (11763350_a_at) / Fold change /veh FAM212B (11763350_a_at) / RFU PLEKHG5 (11743358_a_at) / Fold change /veh PLEKHG5 (11743358_a_at) / RFU ZSCAN30 (11745921_a_at) / Fold change /veh ZSCAN30 (11745921_a_at) / RFU CMKLR1 (11741424_a_at) / Fold change /veh CMKLR1 (11741424_a_at) / RFU LOC101060620 /// MAPK8IP1 (11723275_at) / Fold change /veh LOC101060620 /// MAPK8IP1 (11723275_at) / RFU SPTSSB (11747773_x_at) / Fold change /veh SPTSSB (11747773_x_at) / RFU PRSS12 (11739890_at) / Fold change /veh PRSS12 (11739890_at) / RFU BIN1 (11741810_x_at) / Fold change /veh BIN1 (11741810_x_at) / RFU WNT11 (11732464_a_at) / Fold change /veh WNT11 (11732464_a_at) / RFU C10orf10 (11716521_a_at) / Fold change /veh C10orf10 (11716521_a_at) / RFU C5orf56 (11738089_at) / Fold change /veh C5orf56 (11738089_at) / RFU CYB561 (11721691_x_at) / Fold change /veh CYB561 (11721691_x_at) / RFU ANKRD19P (11752326_a_at) / Fold change /veh ANKRD19P (11752326_a_at) / RFU OR2T12 /// OR2T33 /// OR2T8 (11738714_s_at) / Fold change /veh OR2T12 /// OR2T33 /// OR2T8 (11738714_s_at) / RFU VCAN (11748164_a_at) / Fold change /veh VCAN (11748164_a_at) / RFU JSRP1 (11732532_at) / Fold change /veh JSRP1 (11732532_at) / RFU KRTAP10-11 (11738290_x_at) / Fold change /veh KRTAP10-11 (11738290_x_at) / RFU MYO3A (11730013_a_at) / Fold change /veh MYO3A (11730013_a_at) / RFU EBF3 (11725865_a_at) / Fold change /veh EBF3 (11725865_a_at) / RFU CAMK2N1 (11719241_x_at) / Fold change /veh CAMK2N1 (11719241_x_at) / RFU C5orf56 (11738088_a_at) / Fold change /veh C5orf56 (11738088_a_at) / RFU OLFML3 (11715873_a_at) / Fold change /veh OLFML3 (11715873_a_at) / RFU LOC100653217 /// NTM (11731650_a_at) / Fold change /veh LOC100653217 /// NTM (11731650_a_at) / RFU MAPK11 (11762145_a_at) / Fold change /veh MAPK11 (11762145_a_at) / RFU FIZ1 (11724087_x_at) / Fold change /veh FIZ1 (11724087_x_at) / RFU OASL (11726364_x_at) / Fold change /veh OASL (11726364_x_at) / RFU SOX15 (11748057_x_at) / Fold change /veh SOX15 (11748057_x_at) / RFU CD79A (11719716_a_at) / Fold change /veh CD79A (11719716_a_at) / RFU HIST1H1D (11736915_at) / Fold change /veh HIST1H1D (11736915_at) / RFU CASKIN2 (11723855_a_at) / Fold change /veh CASKIN2 (11723855_a_at) / RFU LOC730098 (11760151_x_at) / Fold change /veh LOC730098 (11760151_x_at) / RFU OR4N2 (11742367_at) / Fold change /veh OR4N2 (11742367_at) / RFU PRRT2 (11749266_a_at) / Fold change /veh PRRT2 (11749266_a_at) / RFU SNX32 (11753110_a_at) / Fold change /veh SNX32 (11753110_a_at) / RFU CDHR5 (11726645_a_at) / Fold change /veh CDHR5 (11726645_a_at) / RFU RCAN1 (11760418_a_at) / Fold change /veh RCAN1 (11760418_a_at) / RFU FAM167A (11723789_a_at) / Fold change /veh FAM167A (11723789_a_at) / RFU FAM26E (11764081_at) / Fold change /veh FAM26E (11764081_at) / RFU ISYNA1 (11749810_s_at) / Fold change /veh ISYNA1 (11749810_s_at) / RFU ACY1 (11761880_at) / Fold change /veh ACY1 (11761880_at) / RFU 11764098_at / Fold change /veh 11764098_at / RFU SAMD14 (11745864_x_at) / Fold change /veh SAMD14 (11745864_x_at) / RFU NPB (11741838_a_at) / Fold change /veh NPB (11741838_a_at) / RFU TMPRSS6 (11731388_a_at) / Fold change /veh TMPRSS6 (11731388_a_at) / RFU KRTAP10-2 (11738614_at) / Fold change /veh KRTAP10-2 (11738614_at) / RFU ARHGAP8 /// PRR5-ARHGAP8 (11727945_x_at) / Fold change /veh ARHGAP8 /// PRR5-ARHGAP8 (11727945_x_at) / RFU KRTAP5-7 /// NADSYN1 (11734609_at) / Fold change /veh KRTAP5-7 /// NADSYN1 (11734609_at) / RFU RASL12 (11751679_a_at) / Fold change /veh RASL12 (11751679_a_at) / RFU CDKN2B (11736163_a_at) / Fold change /veh CDKN2B (11736163_a_at) / RFU PRF1 (11729649_at) / Fold change /veh PRF1 (11729649_at) / RFU, ZNF638 /// ZNF638-IT1 / Fold change vs veh, ZNF638 /// ZNF638-IT1 / RFU, PANK3 / Fold change vs veh, PANK3 / RFU, SH3YL1 / Fold change vs veh, SH3YL1 / RFU, ZEB2 / Fold change vs veh, ZEB2 / RFU, NRIP1 / Fold change vs veh, NRIP1 / RFU, PTTG1IP / Fold change vs veh, PTTG1IP / RFU, CAPN2 / Fold change vs veh, CAPN2 / RFU, MED14 / Fold change vs veh, MED14 / RFU, SNORA58 / Fold change vs veh, SNORA58 / RFU, C1orf63 / Fold change vs veh, C1orf63 / RFU, LRRFIP1 / Fold change vs veh, LRRFIP1 / RFU, NDUFAF7 / Fold change vs veh, NDUFAF7 / RFU, SLC12A2 / Fold change vs veh, SLC12A2 / RFU, IBTK / Fold change vs veh, IBTK / RFU, ESF1 / Fold change vs veh, ESF1 / Fold change vs veh, TMEM50B / RFU, TAOK1 / Fold change vs veh, TAOK1 / RFU, ACBD3 / Fold change vs veh, ACBD3 / RFU, TMA16 / Fold change vs veh, TMA16 / RFU, RWDD3 / Fold change vs veh, RWDD3 / RFU, BCAT1 / Fold change vs veh, BCAT1 / RFU, EDEM3 / Fold change vs veh, EDEM3 / RFU, TMEM33 / Fold change vs veh, TMEM33 / RFU, WDR75 / Fold change vs veh, WDR75 / RFU, AHCTF1 / Fold change vs veh, AHCTF1 / RFU, TFRC / Fold change vs veh, TFRC / RFU, ZDHHC17 / Fold change vs veh, ZDHHC17 / RFU, NOM1 / Fold change vs veh, NOM1 / RFU, ARL8B / Fold change vs veh, ARL8B / RFU, ZBTB11 / Fold change vs veh, ZBTB11 / RFU, TAMM41 / Fold change vs veh, TAMM41 / RFU, KIAA1704 /// LOC100996395 / Fold change vs veh, KIAA1704 /// LOC100996395 / RFU, ING1 / Fold change vs veh, ING1 / RFU, TRMT61B / Fold change vs veh, TRMT61B / RFU, FUBP3 / Fold change vs veh, FUBP3 / RFU, TP53 / Fold change vs veh, TP53 / RFU, TNKS2 / Fold change vs veh, TNKS2 / RFU, ZFP14 / Fold change vs veh, ZFP14 / RFU, ACTR2 / Fold change vs veh, ACTR2 / RFU, PPP3R1 / Fold change vs veh, PPP3R1 / RFU, PIK3R1 / Fold change vs veh, PIK3R1 / RFU, HNRNPA1 / Fold change vs veh, HNRNPA1 / RFU, RNF170 / Fold change vs veh, RNF170 / RFU, ZNF28 / Fold change vs veh, ZNF28 / RFU, RNGTT / Fold change vs veh, RNGTT / RFU, OGT / Fold change vs veh, OGT / RFU, BRD1 / Fold change vs veh, BRD1 / RFU, MARS / Fold change vs veh, MARS / RFU, ZNF655 / Fold change vs veh, ZNF655 / RFU, FAHD1 / Fold change vs veh, FAHD1 / RFU, BDP1 / Fold change vs veh, BDP1 / RFU, LRRCC1 / Fold change vs veh, LRRCC1 / RFU, ARID1A / Fold change vs veh, ARID1A / RFU, ZNF146 / Fold change vs veh, ZNF146 / RFU, ZNF330 / Fold change vs veh, ZNF330 / RFU, GPN3 / Fold change vs veh, GPN3 / RFU, C9orf123 / Fold change vs veh, C9orf123 / RFU, N4BP2L2 / Fold change vs veh, N4BP2L2 / RFU, ARFIP1 / Fold change vs veh, ARFIP1 / RFU, FAM179B / Fold change vs veh, FAM179B / RFU, BCL10 / Fold change vs veh, BCL10 / RFU, UHRF1BP1L / Fold change vs veh, UHRF1BP1L / RFU, BET1 / Fold change vs veh, BET1 / RFU, CNOT2 / Fold change vs veh, CNOT2 / RFU, ZNF268 / Fold change vs veh, ZNF268 / Fold change vs veh, ZNF507 / RFU, DGCR2 / Fold change vs veh, DGCR2 / RFU, WDSUB1 / Fold change vs veh, WDSUB1 / Fold change vs veh, HSP90B1 /// MIR3652 / RFU, ADSS / Fold change vs veh, ADSS / RFU, GK / Fold change vs veh, GK / RFU, ZNF148 / Fold change vs veh, ZNF148 / RFU, TAF9 / Fold change vs veh, TAF9 / RFU, SLC1A5 / Fold change vs veh, SLC1A5 / RFU, SLMO2 / Fold change vs veh, SLMO2 / RFU, ABCC4 / Fold change vs veh, ABCC4 / RFU, LOC101060439 /// RAP1B / Fold change vs veh, LOC101060439 /// RAP1B / RFU, RFX7 / Fold change vs veh, RFX7 / RFU, GTPBP10 / Fold change vs veh, GTPBP10 / RFU, CNEP1R1 / Fold change vs veh, CNEP1R1 / RFU, BIVM-ERCC5 /// ERCC5 / Fold change vs veh, BIVM-ERCC5 /// ERCC5 / RFU, ILF3 / Fold change vs veh, ILF3 / RFU 11762660_at / Fold change /veh 11762660_at / RFU VCAN (11757783_s_at) / Fold change /veh VCAN (11757783_s_at) / RFU DDX43 (11728927_at) / Fold change /veh DDX43 (11728927_at) / RFU KRT8 (11758188_x_at) / Fold change /veh KRT8 (11758188_x_at) / RFU NKD1 (11759106_at) / Fold change /veh NKD1 (11759106_at) / RFU SRD5A1 (11742802_a_at) / Fold change /veh SRD5A1 (11742802_a_at) / RFU TPSAB1 /// TPSB2 (11721975_s_at) / Fold change /veh TPSAB1 /// TPSB2 (11721975_s_at) / RFU GSTM3 (11746129_a_at) / Fold change /veh GSTM3 (11746129_a_at) / RFU IL23R (11737362_x_at) / Fold change /veh IL23R (11737362_x_at) / RFU TMEM51 (11727254_a_at) / Fold change /veh TMEM51 (11727254_a_at) / RFU PIWIL2 (11732686_x_at) / Fold change /veh PIWIL2 (11732686_x_at) / RFU ORM1 (11744905_x_at) / Fold change /veh ORM1 (11744905_x_at) / RFU CCDC152 (11743942_at) / Fold change /veh CCDC152 (11743942_at) / RFU ECM1 (11717891_a_at) / Fold change /veh ECM1 (11717891_a_at) / RFU IL23R (11748794_a_at) / Fold change /veh IL23R (11748794_a_at) / RFU TNFAIP8L3 (11732012_x_at) / Fold change /veh TNFAIP8L3 (11732012_x_at) / RFU MBOAT4 (11741988_at) / Fold change /veh MBOAT4 (11741988_at) / RFU 11764193_at / Fold change /veh 11764193_at / RFU TMEM53 (11763286_at) / Fold change /veh TMEM53 (11763286_at) / RFU MAGEB2 (11727129_at) / Fold change /veh MAGEB2 (11727129_at) / RFU TMEM200A (11744735_a_at) / Fold change /veh TMEM200A (11744735_a_at) / RFU CCDC152 (11751479_a_at) / Fold change /veh CCDC152 (11751479_a_at) / RFU FAM211A (11726209_a_at) / Fold change /veh FAM211A (11726209_a_at) / RFU RGS16 (11746705_a_at) / Fold change /veh RGS16 (11746705_a_at) / RFU VCAN (11755009_s_at) / Fold change /veh VCAN (11755009_s_at) / RFU RHOB (11743442_s_at) / Fold change /veh RHOB (11743442_s_at) / RFU RGS16 (11720943_a_at) / Fold change /veh RGS16 (11720943_a_at) / RFU RGS16 (11720944_at) / Fold change /veh RGS16 (11720944_at) / RFU, VPS4B / Fold change vs veh, VPS4B / RFU, CREB1 / Fold change vs veh, CREB1 / RFU, DNAJC13 / Fold change vs veh, DNAJC13 / RFU, GNAQ / Fold change vs veh, GNAQ / RFU, CDK5R1 / Fold change vs veh, CDK5R1 / RFU, ZRANB3 / Fold change vs veh, ZRANB3 / RFU, CUL4A / Fold change vs veh, CUL4A / RFU, CCNY / Fold change vs veh, CCNY / RFU, UFL1 / Fold change vs veh, UFL1 / RFU, COG3 / Fold change vs veh, COG3 / RFU, DIAPH2 / Fold change vs veh, DIAPH2 / RFU, SKA2 / Fold change vs veh, SKA2 / RFU, AFF3 / Fold change vs veh, AFF3 / RFU, LMF1 / Fold change vs veh, LMF1 / RFU, IPO11 / Fold change vs veh, IPO11 / RFU, DFFB / Fold change vs veh, DFFB / RFU, FOXP1 / Fold change vs veh, FOXP1 / RFU, CARD8 / Fold change vs veh, CARD8 / RFU, STRN3 / Fold change vs veh, STRN3 / RFU, ADK / Fold change vs veh, ADK / RFU, RASSF2 / Fold change vs veh, RASSF2 / RFU, WIPF1 / Fold change vs veh, WIPF1 / RFU, LARP1B / Fold change vs veh, LARP1B / RFU, RASA1 / Fold change vs veh, RASA1 / RFU, RB1 / Fold change vs veh, RB1 / RFU, PPFIA1 / Fold change vs veh, PPFIA1 / RFU, MAT2A / Fold change vs veh, MAT2A / RFU, CCT5 / Fold change vs veh, CCT5 / RFU, WDR92 / Fold change vs veh, WDR92 / RFU, CUX1 / Fold change vs veh, CUX1 / RFU, TTC7A / Fold change vs veh, TTC7A / RFU, TMEM135 / Fold change vs veh, TMEM135 / RFU, DEPTOR / Fold change vs veh, DEPTOR / RFU, CPM / Fold change vs veh, CPM / RFU, DNAJB6 / Fold change vs veh, DNAJB6 / RFU, CACNA2D3 / Fold change vs veh, CACNA2D3 / RFU, DTX4 / Fold change vs veh, DTX4 / RFU, TFCP2 / Fold change vs veh, TFCP2 / RFU, GMCL1 /// GMCL1P1 / Fold change vs veh, GMCL1 /// GMCL1P1 / RFU, AEBP2 / Fold change vs veh, AEBP2 / RFU, SNHG1 /// SNORD22 /// SNORD25 /// SNORD26 /// SNORD27 /// SNORD28 /// SNORD29 /// SNORD31 / Fold change vs veh, SNHG1 /// SNORD22 /// SNORD25 /// SNORD26 /// SNORD27 /// SNORD28 /// SNORD29 /// SNORD31 / Fold change (Aza/veh), C12orf56 (ProbeSet 11735607_a_at) / Fold change (ACY-1035/veh), C12orf56 (ProbeSet 11735607_a_at) / Fold change (Aza/veh), FGFR1OP (ProbeSet 11751329_s_at) / Fold change (ACY-1035/veh), FGFR1OP (ProbeSet 11751329_s_at) / Fold change (Aza/veh), VPS36 (ProbeSet 11739960_a_at) / Fold change (ACY-1035/veh), VPS36 (ProbeSet 11739960_a_at) / RFU SYPL1 (11715823_x_at) / Fold change /veh SYPL1 (11715823_x_at) / RFU IGFBP7 (11715501_s_at) / Fold change /veh IGFBP7 (11715501_s_at) / RFU REEP3 (11722064_at) / Fold change /veh REEP3 (11722064_at) / RFU IGLL1 (11728026_x_at) / Fold change /veh IGLL1 (11728026_x_at): dose or concentration left out as unconfirmed. The note with it: MV-4-11 cells, 48 hours.

Consider `Nc1ccc(-c2cccs2)cc1NC(=O)c1ccc2c(c1)cc(C1CC1)n2CCN1CCOCC1` [ACY-1035], for which the “Fold change /veh KRT8 (11758183_x_at)” value turned out to be 1.06.
